The values that follow come from article PMC7985170, “Marine Peptide-N6NH2 and Its Derivative-GUON6NH2 Have Potent Antimicrobial Activity Against Intracellular Edwardsiella tarda in vitro and in vivo” (Frontiers in Microbiology, 2021).

Values after ≈ are worked out from the molar mass of the structure shown. Where a SMILES comes first, the peptide text is derived from it. Bridges are numbered along the chain shown (N, C = ends).

Series [1] concerns S. typhimurium ATCC14028. It is filed as cell-based, Salmonella typhimurium. The method, then: (§1) The antimicrobial activity of peptides was determined by the microbroth dilution method ([Zhang et al., 2014]). The bacterial strains were incubated in Mueller-Hinton (MH) medium at 28°C or 37°C overnight. Bacteria (1 × 10^5 CFU/mL) were added into 96-well plates, followed by the addition of serial dilutions of peptides (from 0.0625 to 128 μg/mL). The plates were incubated at 37°C for 18–24 h. The minimal inhibitory concentration (MIC) value was determined as the lowest peptide concentration at which no bacterial growth was observed.

Series [2] is classed as cell-based, Streptococcus enteritidis. The method, then:
as §1

The test system of series [3] is Escherichia coli CVCC195. It is filed as cell-based. Here is the method:
as §1

In series [4] the test system is Staphylococcus hyicus 437-2. It is filed as cell-based. The method, then: as §1
Series [5] relates to Salmonella typhimurium CVCC533. It is filed as cell-based. To be noted: murium CVCC533. The method, then:
as §1

Series [6] has as its system Salmonella pullorum CVCC1802. It is filed as cell-based. The method, then: as §1
Series [7] concerns Edwardsiella tarda. It is filed as cell-based. The method, then:
as §1

Series [8] concerns Staphylococcus aureus ATCC43300. It is filed as cell-based. The method, then:
as §1

Series [9] deals with S. pullorum CVCC1789. It is filed as cell-based, Salmonella pullorum. The method, then: as §1
For series [10], the system named is LPS. Description: LPS binding, BODIPY-TR-cadaverine (BC) probe displacement. To be noted: 0.5 μM LPS, 5 μM BC, Tris buffer pH 7.4; peptides 0.049 to 50 μM. Here is the method:
The BODIPY’-TR-cadaverine (BC) probe was used to determine the ability of peptides to bind to LPS ([Wang et al., 2020]). 0.5 μM LPS was incubated with 5 μM BC in […] Tris buffer (pH 7.4) for 4 h at 37°C. Subsequently, the peptides were added into the mixture and the final concentrations of peptides ranged from 0.049 to 50 μM. Ampicillin was used as the negative control. Changes in fluorescence were measured by a fluorescence spectrophotometry at room temperature (excitation/emission, 580/620 nm).

Series [11] deals with murine erythrocytes. It is filed as cell-based, mouse. The method, then:
The hemolysis of peptides was evaluated by determining the amount of hemoglobin that was released from fresh mouse erythrocytes ([Flamm et al., 2019]). The blood cells were washed three times with 10 mM PBS (pH 7.4) and centrifuged for 10 min (1,500 rpm). Erythrocyte solution (8%, v/v) was mixed with peptide solutions (1:1) and incubated for 1 h at 37°C. The mixture was then centrifuged for 5 min (1,500 rpm), and the absorbance of supernatants was measured at 540 nm. Values of 0 and 100% hemolysis were determined in PBS and 0.1% triton X-100, respectively. The hemolysis of peptides was calculated using the following formula: Hemolysis (%) = [(Abs treated sample – Abs negative control)/(Abs positive control – Abs negative control)] × 100.

Series [12] concerns inner membrane of E. tarda. Kind of series: Inner membrane penetration, PI staining by flow cytometry. It is filed as cell-based, Edwardsiella tarda. To be noted: 1× MIC, 5–30 min at 37°C, 1 × 10^8 CFU/mL. The method, then:
Mid-log phase E. tarda cells (1 × 10^8 CFU/mL) were incubated with or without 1× MIC peptides solutions at 37°C for 5, 15, and 30 min, respectively. After washing twice with PBS, bacterial cells were then incubated with 50 μg/mL propidium iodide (PI) for 15 min and analyzed using a FACS Calibur Flow Cytometer (BD, United States) ([Stearns-Kurosawa et al., 2011]).
In general terms: Flow cytometry measures light scatter and fluorescence of single cells or particles in a stream.

The test system of series [13] is E. coli CVCC25922. It is filed as cell-based, Escherichia coli. The method, then:
as §1

Series [14] deals with E. coli CVCC1515. It is filed as cell-based, Escherichia coli. Here is the method: as §1
Series [15] deals with S. hyicus 15095. It is filed as cell-based, Staphylococcus hyicus. The method, then:
as §1

Series [16] relates to S. aureus ATCC546. It is filed as cell-based, Staphylococcus aureus. Here is the method:
as §1

Series [17] relates to S. aureus ATCC25923. It is filed as cell-based, Staphylococcus aureus. Here is the method:
as §1

In series [18] the test system is Gram-negative bacteria. Description: Geometric mean of MICs and therapeutic index. To be noted: for GM Gram-negative bacteria: geometric mean (GM) of MICs against Gram-negative bacteria; for TI Gram-negative bacteria: therapeutic index (TI), cell selectivity. It is filed as cell-based. The method, then:
as §1
(§2) The geometric mean (GM) of MICs of peptides against Gram-negative and Gram-positive bacteria was calculated, and the result was shown in Table 3. […] For Gram-negative bacteria, the TI value of GUON6NH2 (53.33) was very close to N6NH2 (58.18), while for positive bacteria, the TI value of GUON6NH2 (12.8) was slightly higher than that of N6NH2 (12.31), indicating their huge therapeutic potential. For Gram-positive bacteria, DN6NH2 had the highest TI value and the best therapeutic potential.

In series [19] the test system is Gram-negative and Gram-positive bacteria (ALL). Description: Geometric mean of MICs and therapeutic index. To be noted: for GM ALL: geometric mean (GM) of MICs, all strains; for TI ALL: therapeutic index (TI), cell selectivity. It is filed as cell-based. Here is the method:
as §1, §2

In series [20] the test system is Gram-positive bacteria. Kind of series: Geometric mean of MICs and therapeutic index. To be noted: for GM Gram-positive bacteria: geometric mean (GM) of MICs against Gram-positive bacteria; for TI Gram-positive bacteria: therapeutic index (TI), cell selectivity. It is filed as cell-based. The method, then: as §1, §2
The test system of series [21] is E. tarda. Description: SEM and TEM morphology. It is filed as cell-based, Edwardsiella tarda. To be noted: 4× MIC, 2 h. Here is the method: To further characterize the bactericidal effects of the peptides, scanning electron microscopy (SEM) and transmission electron microscopy (TEM) were used to visualize morphological changes ([Yang et al., 2019]). E. tarda was cultured to logarithmic growth stage (10^8 CFU/mL) and diluted with 0.01 M PBS (pH 7.4) to OD600 nm = 1. E. tarda cells were treated with 4× MIC peptides at 37°C for 2 h and the untreated cells were used as the control. Briefly, after centrifugation, the bacterial cells were washed three times with 0.1 M PBS (pH 7.2) and fixed overnight at 4°C with 2.5% glutaraldehyde. After washing again, the cells were fixed with 1% osmium tetroxide (OsO4) for 2 h and dehydrated in a graded ethanol series (50%–70%–85%–95% × 2–100%, × 2) for 15 min, respectively. The samples were then dried by CO2, sputtered with gold-palladium, and observed on a QUANTA200 SEM (FEI, Philips, Netherlands).
E. tarda cells were treated peptides before fixation as described above. The bacteria were washed with 0.01 M PBS (pH 7.4) for five times, 7 min each time, and fixed with 1% osmium acid buffer (4°C) for 1 h. After dehydration with a graded acetone series (30%–50%–70%–85%–95%–100% × 3), the cells were immersed in mixtures of acetone and resin (3:1, 1:1 and 1:3, respectively) for 40 min and in a pure epoxy resin overnight. The samples were then embedded in embedding medium and polymerized at 45°C for 3 h and at 65°C for 24 h, respectively. The sections were prepared using an ultramicrotome, stained with 1% uranyl acetate, and visualized by a JEM1400 (JEDL, Tokyo, Japan).

One may read the MIC as the lowest concentration found to suppress growth. Read a high MIC as weaker potency.

On to `CC(C)[C@@H]1NC(=O)CNC(=O)[C@H](CC(N)=O)NC(=O)[C@H](CCCNC(=N)N)NC(=O)[C@H](Cc2ccc(O)cc2)NC(=O)[C@H](C(C)C)NC(=O)[C@@H](NC(=O)[C@@H](NC(=O)[C@H](CC(N)=O)NC(=O)[C@H](Cc2c[nH]c3ccccc23)NC(=O)[C@H](C)NC(=O)[C@H](Cc2ccccc2)NC(=O)CN)C(C)C)CSSC[C@@H](C(=O)N[C@@H](Cc2c[nH]cn2)C(=O)N[C@@H](CCCNC(=N)N)C(=O)N2CCC[C@H]2C(=O)N[C@@H](C)C(=O)N[C@@H](CC(N)=O)C(N)=O)NC(=O)[C@H](C(C)C)NC(=O)[C@H](CCCNC(=N)N)NC1=O` [N6PNH2] (H-GFAWNVCVYRNGVRVCHRPAN-NH2; disulfide 7-16 (inferred); N-terminus assumed), for which the MIC in series [1] is 16 µg/mL (≈ 6.62 µM); in series [2], 2 µg/mL (≈ 0.828 µM); in [3] it was 8 µg/mL (≈ 3.31 µM); in series [4], >64 µg/mL; in series [5], 32 µg/mL (≈ 13.2 µM); in series [6], 8 µg/mL (≈ 3.31 µM). Moreover, the MIC in series [7] was 32 µg/mL (≈ 13.2 µM); in [8] it was >64 µg/mL; in series [9] it was 16 µg/mL (≈ 6.62 µM); in series [13], 8 µg/mL (≈ 3.31 µM); in series [14], 4 µg/mL (≈ 1.66 µM); in [15] it was 64 µg/mL (≈ 26.5 µM). The MIC in series [16] and in series [17] was >64 µg/mL throughout. Moreover, the “ability to bind to LPS (BC probe displacement)” value (“ability to bind to LPS” below) in [10] is recorded as “V112N6NH2 > GUON6NH2 > N6NH2 > DN6NH2 > N6PNH2”. Also, the MHC in series [11] was >128 µg/mL. In addition, the “penetration rate (PI-stained cells)” value in [12] is given as 0.42–2.20%. Further, the “GM Gram-negative bacteria” value in [18] was 13.4 µg/mL. Also, the “TI Gram-negative bacteria” value in series [18] was determined as 19.1. Moreover, the “GM ALL” value in series [19] amounted to 47.33 µg/mL. In addition, the “TI ALL” value in series [19] was found to be 5.41. Also, the “GM Gram-positive bacteria” value in series [20] was 115.2 µg/mL. The “TI Gram-positive bacteria” value in series [20] is 2.22.

For the molecule `CC(C)[C@H]1NC(=O)CNC(=O)[C@@H](CC(N)=O)NC(=O)[C@@H](CCCNC(=N)N)NC(=O)[C@@H](Cc2ccc(O)cc2)NC(=O)[C@@H](C(C)C)NC(=O)[C@H](NC(=O)[C@H](NC(=O)[C@@H](CC(N)=O)NC(=O)[C@@H](Cc2c[nH]c3ccccc23)NC(=O)[C@@H](C)NC(=O)[C@@H](Cc2ccccc2)NC(=O)CN)C(C)C)CSSC[C@H](C(=O)N[C@H](Cc2c[nH]cn2)C(=O)N[C@H](CCCNC(=N)N)C(=O)N[C@H](CCCNC(=N)N)C(=O)N[C@H](C)C(=O)N[C@H](CC(N)=O)C(N)=O)NC(=O)[C@@H](C(C)C)NC(=O)[C@@H](CCCNC(=N)N)NC1=O` [DN6NH2], the “morphological changes by SEM” value in [21] is on record as “no significant change in the bacterial cell structures”. Besides, the MIC turned out to be 8 µg/mL (≈ 3.23 µM) in [1]; 2 µg/mL (≈ 0.808 µM) in series [2]; 8 µg/mL (≈ 3.23 µM) in series [3]; 8 µg/mL (≈ 3.23 µM) in series [4]; 16 µg/mL (≈ 6.46 µM) in series [5]; 8 µg/mL (≈ 3.23 µM) in series [6]. The MIC amounted to 8 µg/mL (≈ 3.23 µM) in [7]; 4 µg/mL (≈ 1.62 µM) in series [8]; 16 µg/mL (≈ 6.46 µM) in [9]; 8 µg/mL (≈ 3.23 µM) in [13]; 4 µg/mL (≈ 1.62 µM) in series [14]; 4 µg/mL (≈ 1.62 µM) in series [15]. In addition, the values for the MIC in series [16] and in [17] were 16 µg/mL (≈ 6.46 µM) and 8 µg/mL (≈ 3.23 µM), respectively. For the same molecule, the “ability to bind to LPS” value in series [10] is “V112N6NH2 > GUON6NH2 > N6NH2 > DN6NH2 > N6PNH2”. In addition, the MHC in series [11] was >128 µg/mL. The “penetration rate (PI-stained cells)” value in [12] was 1.3–16.1%. Besides, the “GM Gram-negative bacteria” value in series [18] stood at 8.2 µg/mL. Further, the “TI Gram-negative bacteria” value in [18] was found to be 31.22. In addition, the “GM ALL” value in [19] turned out to be 8.13 µg/mL. In addition, the “TI ALL” value in series [19] was found to be 31.49. In series [20], the “GM Gram-positive bacteria” value worked out at 8 µg/mL. Also, the “TI Gram-positive bacteria” value in [20] is reported as 32.

With `CC1(C)S[C@@H]2[C@H](NC(=O)[C@H](N)c3ccccc3)C(=O)N2[C@H]1C(=O)O` [ampicillin, Ampicillin, reference compound], the “ability to bind to LPS” value in series [10] is recorded as “did not replace BC probe to bind to LPS”.
